One data set addresses T1, JAK2 (h) (Homo sapiens, UniProt O60674).
T1 construct: purchased Millipore UK Ltd (assays performed there as a service)
Briefly: JAK2 (h) kinase assay. Type of data set: biochemical. The settings on record: [γ-33P-ATP] 10 μM or KM values; 40 minutes at room temperature. Here is the method: Kinase assays can be performed by measurement of incorporation of γ-^33P ATP into immobilized myelin basic protein (MBP). High binding white 384 well plates (Greiner) are coated with MBP (Sigma # M-1891) by incubation of 60 μL well of 20 μg/mL MBP in Tris-buffered saline (TBS; 50 mM Tris pH 8.0, 138 mM NaCl, 2.7 mM KCl) for 24 h at 4° C. Plates are washed 3× with 100 μL TBS. Kinase reactions are carried out in a total volume of 34 μL in kinase buffer (according to the need to make, for example, 5 mM Hepes pH 7.6, 15 mM NaCl, 0.01% bovine gamma globulin (Sigma #1-5506), 10 mM MgCl2, 1 mM DTT, 0.02% TritonX-100). Compound dilutions are performed in DMSO and added to assay wells to a final DMSO concentration of 1%. Each data point is measured in duplicate, and at least two duplicate assays are performed for each individual compound determination. Enzyme is added to final concentrations of 10 nM or 20 nM, for example. A mixture of unlabeled ATP and γ-^33P ATP is added to start the reaction (2×10^6 cpm of γ-^33P ATP per well (3000 Ci/mmole) and 10 μM unlabeled ATP, typically. The reactions are carried out for 1 hour at room temperature with shaking. Plates are washed 7× with TBS, followed by the addition of 50 μL well scintillation fluid (Wallac). Plates are read using a Wallac Trilux counter. This is only one format of such assays; various other formats are possible, as known to one skilled in the art.
(§1) The above assay procedure can be used to determine the IC50 for inhibition and/or the inhibition constant, Ki. […] The IC50 value is estimated by preparing a 10 point curve using a ½ log dilution series (for example, a typical curve may be prepared using the following compound concentrations: 3 μM, 1 μM, 0.3 μM, 0.1 μM, 0.03 μM, 0.01 μM, 0.003 μM, 0.001 μM, 0.0003 μM and 0 μM).
JAK2 (h) is incubated with 8 mM MOPS pH 7.0, 0.2 mM EDTA, 100 μM […], 10 mM MgAcetate and [γ-^33P-ATP] […] The reaction is initiated by the addition of the MgATP mix. After incubation for 40 minutes at room temperature, the reaction is stopped by the addition of 3% phosphoric acid solution. 10 μL of the reaction is then spotted onto a P30 filtermat and washed three times for 5 minutes in 75 mM phosphoric acid and once in methanol prior to drying and scintillation counting.
(§2) The kinase assays described herein were performed at Millipore UK Ltd, Dundee Technology Park, Dundee DD2 1SW, UK.

Another data set has as its target T2, JAK1 (h) (Homo sapiens, UniProt P23458).
T2 construct: purchased Millipore UK Ltd (assays performed there as a service)
Briefly: JAK1 (h) kinase assay. Type of data set: biochemical. Particulars: [γ-33P-ATP] 10 μM or KM values; 40 minutes at room temperature. Here is the method:
as §1
JAK1 (h) is incubated with 20 mM Tris/HCl pH 7.5, 0.2 mM EDTA, 500 μM […], 10 mM MgAcetate and [γ-^33P-ATP] […] The reaction is initiated by the addition of the MgATP mix. After incubation for 40 minutes at room temperature, the reaction is stopped by the addition of 3% phosphoric acid solution. 10 μL of the reaction is then spotted onto a P30 filtermat and washed three times for 5 minutes in 75 mM phosphoric acid and once in methanol prior to drying and scintillation counting.
as §2

The target in another data set is T3, Aurora-A (h) (Homo sapiens, UniProt O14965).
T3 construct: purchased Millipore UK Ltd (assays performed there as a service)
T3 sequence (O14965 1-403): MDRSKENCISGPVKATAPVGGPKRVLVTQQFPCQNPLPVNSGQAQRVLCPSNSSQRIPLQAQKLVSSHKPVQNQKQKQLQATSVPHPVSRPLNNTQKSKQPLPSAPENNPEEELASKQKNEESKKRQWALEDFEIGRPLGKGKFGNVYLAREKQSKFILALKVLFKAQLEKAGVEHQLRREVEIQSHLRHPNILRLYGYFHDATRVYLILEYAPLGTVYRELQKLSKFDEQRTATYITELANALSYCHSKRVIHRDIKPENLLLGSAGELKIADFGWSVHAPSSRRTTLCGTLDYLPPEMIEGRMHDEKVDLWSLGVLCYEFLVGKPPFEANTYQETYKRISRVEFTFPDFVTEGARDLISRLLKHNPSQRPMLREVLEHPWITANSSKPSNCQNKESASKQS
Briefly: Aurora-A (h) kinase assay. In kind it is biochemical. The settings on record: [γ-33P-ATP] 10 μM or KM values; 40 minutes at room temperature. The procedure: as §1
Aurora-A (h) is incubated with 8 mM MOPS pH 7.0, 0.2 mM EDTA, 200 μM LRRASLG (Kemptide), 10 mM MgAcetate and [γ-^33P-ATP] […] The reaction is initiated by the addition of the MgATP mix. After incubation for 40 minutes at room temperature, the reaction is stopped by the addition of 3% phosphoric acid solution. 10 μL of the reaction is then spotted onto a P30 filtermat and washed three times for 5 minutes in 75 mM phosphoric acid and once in methanol prior to drying and scintillation counting.
as §2

Data set [1] in a line: Compound stability in rat liver microsomes. Type of data set: in vitro ADME. The settings on record: for CLint scaled at 5 μM: liver microsomes, pH 7.4, in vivo CLint extrapolated from rat liver microsome incubation; for half-life at 5 μM: rat liver microsomes 0.5 mg protein/mL, compound 5 μM, NADPH 1.0 mM, pH 7.4, 37° C., read-out: Rat T1/2. A digest of the protocol: (§3)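 Compounds (5 μM) incubated at 37 °C with human or rat liver microsomes (0.5 mg protein/mL) and 1.0 mM NADPH in 100 mM phosphate buffer pH 7.4, 0.05% DMSO, in duplicate. Sampled 0–60 min, quantified by LC/MS/MS as % of time zero; CLint extrapolated.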

Data set [2] is described as follows: Compound stability in human liver microsomes. Type of data set: in vitro ADME. Particulars: for half-life at 5 μM: human liver microsomes 0.5 mg protein/mL, compound 5 μM, NADPH 1.0 mM, pH 7.4, 37° C., read-out: Human T1/2; for CLint scaled at 5 μM: liver microsomes, pH 7.4, in vivo CLint extrapolated from human liver microsome incubation. A digest of the protocol: as §3

Data set [3] is described as follows: Pharmacokinetics after intravenous and oral administration in rats. Type of data set: in vivo. Particulars: for Clearance (CL) after iv dosing / AUC(0-t) / half-life / Vd: dose 1 mg/kg (Ex. 9: 0.6, Ex. 18: 0.5, Ex. 50: 0.96 mg/kg), iv dosing; for AUC(0-t) / half-life / Vd / bioavailability: rat, plasma; for Vd: read-out: Vss; for bioavailability: oral (generally 5 or 10 mg/kg) versus iv dosing, read-out: F (oral bioavailability). A digest of the protocol:
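Rats dosed i.v. (about 0.5, 0.6, 1 or 2 mg/kg) or p.o. (5 or 10 mg/kg) as solution, suspension or capsule. Plasma sampled over 24 h and quantified by LC/MS/MS in MRM mode with ESI.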

A value given as a limit tells only on which side of the number the result lay.

T2 sequence (P23458 whole entry): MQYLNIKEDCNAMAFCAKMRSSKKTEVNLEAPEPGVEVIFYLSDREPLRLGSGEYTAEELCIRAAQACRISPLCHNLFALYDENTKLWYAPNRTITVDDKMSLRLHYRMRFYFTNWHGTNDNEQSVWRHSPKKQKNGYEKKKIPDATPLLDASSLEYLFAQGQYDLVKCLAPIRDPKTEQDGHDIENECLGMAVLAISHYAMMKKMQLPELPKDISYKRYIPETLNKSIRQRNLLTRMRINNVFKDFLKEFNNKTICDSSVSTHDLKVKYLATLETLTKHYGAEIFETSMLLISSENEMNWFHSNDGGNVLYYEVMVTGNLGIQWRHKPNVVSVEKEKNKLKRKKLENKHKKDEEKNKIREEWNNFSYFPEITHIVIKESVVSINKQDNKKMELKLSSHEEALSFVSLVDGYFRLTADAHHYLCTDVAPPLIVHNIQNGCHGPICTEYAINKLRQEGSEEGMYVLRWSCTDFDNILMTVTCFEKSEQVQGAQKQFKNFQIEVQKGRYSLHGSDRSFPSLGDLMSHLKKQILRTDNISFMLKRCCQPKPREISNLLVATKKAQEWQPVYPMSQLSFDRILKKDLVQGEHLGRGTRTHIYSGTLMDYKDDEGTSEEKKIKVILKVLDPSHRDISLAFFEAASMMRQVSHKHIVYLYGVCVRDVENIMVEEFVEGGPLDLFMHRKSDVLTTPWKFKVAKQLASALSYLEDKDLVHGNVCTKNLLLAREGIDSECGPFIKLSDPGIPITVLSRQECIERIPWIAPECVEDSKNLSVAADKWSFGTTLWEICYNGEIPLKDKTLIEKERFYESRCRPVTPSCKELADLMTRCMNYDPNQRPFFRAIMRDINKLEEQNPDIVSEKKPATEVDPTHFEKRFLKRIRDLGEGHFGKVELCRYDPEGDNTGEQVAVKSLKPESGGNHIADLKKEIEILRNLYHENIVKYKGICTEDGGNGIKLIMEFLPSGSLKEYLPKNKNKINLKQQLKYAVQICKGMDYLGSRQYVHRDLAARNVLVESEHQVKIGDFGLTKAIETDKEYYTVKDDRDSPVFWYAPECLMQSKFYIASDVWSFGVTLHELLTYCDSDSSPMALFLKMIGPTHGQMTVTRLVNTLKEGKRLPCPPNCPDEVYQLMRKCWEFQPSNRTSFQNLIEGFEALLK
T1 sequence (O60674 whole entry): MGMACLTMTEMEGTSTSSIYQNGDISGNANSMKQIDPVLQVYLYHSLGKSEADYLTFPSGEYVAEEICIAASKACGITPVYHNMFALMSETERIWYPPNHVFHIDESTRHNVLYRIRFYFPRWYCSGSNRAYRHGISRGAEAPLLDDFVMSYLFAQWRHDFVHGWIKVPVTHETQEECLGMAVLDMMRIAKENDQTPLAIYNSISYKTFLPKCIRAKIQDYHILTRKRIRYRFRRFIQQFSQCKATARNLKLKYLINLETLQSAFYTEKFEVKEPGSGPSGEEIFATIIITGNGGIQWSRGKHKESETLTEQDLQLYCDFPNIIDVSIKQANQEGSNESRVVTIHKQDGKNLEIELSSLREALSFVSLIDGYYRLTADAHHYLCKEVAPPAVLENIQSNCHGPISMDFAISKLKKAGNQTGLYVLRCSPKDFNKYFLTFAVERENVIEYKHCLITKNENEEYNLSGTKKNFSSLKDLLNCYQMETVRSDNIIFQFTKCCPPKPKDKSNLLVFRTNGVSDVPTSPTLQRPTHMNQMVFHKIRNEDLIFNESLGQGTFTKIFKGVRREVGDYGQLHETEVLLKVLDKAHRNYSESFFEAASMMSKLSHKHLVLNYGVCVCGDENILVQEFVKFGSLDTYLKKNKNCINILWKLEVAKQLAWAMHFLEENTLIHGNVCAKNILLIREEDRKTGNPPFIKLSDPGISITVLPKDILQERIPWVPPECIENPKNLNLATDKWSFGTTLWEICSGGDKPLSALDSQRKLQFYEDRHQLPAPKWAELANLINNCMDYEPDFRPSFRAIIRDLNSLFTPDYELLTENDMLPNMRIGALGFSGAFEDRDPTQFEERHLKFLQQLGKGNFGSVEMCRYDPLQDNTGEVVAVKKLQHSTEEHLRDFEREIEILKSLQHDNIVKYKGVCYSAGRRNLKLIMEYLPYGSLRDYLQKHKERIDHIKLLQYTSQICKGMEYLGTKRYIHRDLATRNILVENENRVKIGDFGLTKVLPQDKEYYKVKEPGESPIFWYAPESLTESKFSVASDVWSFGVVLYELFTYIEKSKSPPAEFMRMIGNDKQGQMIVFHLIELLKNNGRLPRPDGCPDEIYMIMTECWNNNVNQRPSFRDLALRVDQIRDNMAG

For orientation: IC50 means the point on the concentration scale where inhibition reaches its midpoint. With `Cc1cn2ccc(Nc3ncc(Cl)c(NC4CCN(c5ccc(C#N)nn5)CC4)n3)cc2n1` [Example 27, 6-(4-((5-chloro-2-((2-methylimidazo[1,2-a]pyridin-7-yl)amino)pyrimidin-4-yl)amino)piperidin-1-yl)pyridazine-3-carbonitrile], the IC50 against JAK2 (h) is 10 nM; on JAK1 (h), < 0.3 nM; at Aurora-A (h) it was 467 nM.

A word on the CLint scaled: it is a measure of how fast metabolising enzymes remove a compound, apart from limits set by blood flow. For orientation: AUC(0-t) means the area under the concentration-time curve up to a stated or last time point. Low values mean low exposure, high ones high exposure. The bioavailability is the share of a dose that reaches the circulation, judged against a reference dose that is usually intravenous. Turning to `N#Cc1ccc(N2CCC(Nc3nc(Nc4ccn5cc(C(F)F)nc5c4)ncc3Cl)CC2)nn1` [Example 28, 6-(4-((5-chloro-2-((2-(difluoromethyl)imidazo[1,2-a]pyridin-7-yl)amino)pyrimidin-4-yl)amino)piperidin-1-yl)pyridazine-3-carbonitrile], in data set [1], the CLint scaled at 5 μM was 164 mL/min/kg and the half-life at 5 μM is 15.1 min. Besides, in data set [2], the half-life at 5 μM amounted to 41.5 min and the CLint scaled at 5 μM was 41.9 mL/min/kg. In addition, in data set [3], the “Clearance (CL) after iv dosing” value turned out to be 14 mL/min/kg, the AUC(0-t) was 1220 ng·h/mL, the half-life is 33.6 min and the Vd amounted to 0.56 L/kg. Also, the bioavailability in data set [3] was found to be 56.1%. This compound also yielded an IC50 against JAK1 (h) of 0.5 nM.

As for `CC(C)(O)Cc1cn2ccc(Nc3ncc(Cl)c(NC4CCN(c5ccc(C#N)nn5)CC4)n3)cc2n1` [Example 38, 6-(4-((5-chloro-2-((2-(2-hydroxy-2-methylpropyl)imidazo[1,2-a]pyridin-7-yl)amino)pyrimidin-4-yl)amino)piperidin-1-yl)pyridazine-3-carbonitrile], the IC50 against JAK2 (h) is 41 nM; on JAK1 (h) it was 0.9 nM; at Aurora-A (h), 440 nM.

With `CC(C)(O)Cc1cnc2cc(Nc3ncc(Cl)c(NC4CCN(c5ccc(C#N)cn5)CC4)n3)ccn12` [Example 42, 6-(4-((5-chloro-2-((3-(2-hydroxy-2-methylpropyl)imidazo[1,2-a]pyridin-7-yl)amino)pyrimidin-4-yl)amino)piperidin-1-yl)nicotinonitrile], the IC50 was 23 nM on JAK2 (h), < 0.3 nM at JAK1 (h) and 1460 nM at Aurora-A (h).

Take `CC(O)Cc1nc2cc(Nc3ncc(Cl)c(NC4CCN(c5ccc(C#N)cn5)CC4)n3)ccn2n1` (centres unmarked) [Example 57, 6-(4-((5-chloro-2-((2-(2-hydroxypropyl)-[1,2,4]triazolo[1,5-a]pyridin-7-yl)amino)pyrimidin-4-yl)amino)piperidin-1-yl)nicotinonitrile]: the concentration for half-maximal inhibition (IC50) at JAK2 (h) is 5 nM; against JAK1 (h) it was 0.9 nM; against Aurora-A (h), > 300 nM.

Turning to `COC(=O)Cc1nc2cc(Nc3ncc(Cl)c(NC4CCN(c5ccc(C#N)nn5)CC4)n3)ccn2n1` [Example 58, methyl 2-(7-((5-chloro-4-((1-(6-cyanopyridazin-3-yl)piperidin-4-yl)amino)pyrimidin-2-yl)amino)-[1,2,4]triazolo[1,5-a]pyridin-2-yl)acetate], the IC50 at JAK2 (h) was 27 nM; on JAK1 (h) it was 0.8 nM; against Aurora-A (h), > 300 nM.

Turning to `CC(C)(O)c1cnc2cc(Nc3ncc(Cl)c(NC4CCN(c5ccc(C#N)nn5)CC4)n3)ccn12` [Example 66, 6-(4-((5-chloro-2-((3-(2-hydroxypropan-2-yl]imidazo[1,2-a]pyridin-7-yl)amino)pyrimidin-4-yl)amino)piperidin-1-yl)pyridazine-3-carbonitrile], the CLint scaled at 5 μM in data set [1] was 68.5 mL/min/kg; in data set [2] it was 67.9 mL/min/kg. For the same compound, the half-life at 5 μM amounted to 36.2 min in data set [1] and 25.6 min in data set [2]. Further, at JAK1 (h), the IC50 amounted to 0.3 nM.

Take `CC(C)(O)c1cn2ccc(Nc3ncc(Cl)c(NC4CCN(c5ccc(C#N)nn5)CC4)n3)cc2n1` [Example 71]: in data set [1], the CLint scaled at 5 μM is 438 mL/min/kg and the half-life at 5 μM was 5.67 min. Further, in data set [2], the half-life at 5 μM came to 18.9 min and the CLint scaled at 5 μM was 91.8 mL/min/kg. This compound registered an IC50 against JAK1 (h) of 0.9 nM.

As for `CC(C)(O)Cc1cnc2cc(Nc3ncc(Cl)c(NC4CCN(c5ccc(C#N)nn5)CC4)n3)ccn12` [Example 80, 6-(4-((5-chloro-2-((3-(2-hydroxy-2-methylpropyl)imidazo[1,2-a]pyridin-7-yl)amino)pyrimidin-4-yl)amino)piperidin-1-yl)pyridazine-3-carbonitrile], in data set [1], the CLint scaled at 5 μM is 131 mL/min/kg and the half-life at 5 μM was 19 min. Further, in data set [2], the half-life at 5 μM was determined as 40.7 min and the intrinsic metabolic clearance (CLint scaled) at 5 μM was 42.7 mL/min/kg. This compound showed an IC50 on JAK1 (h) of 0.6 nM.

Regarding `CC(C)(O)c1nc2cc(Nc3ncc(Cl)c(NC4CCN(c5ccc(C#N)cc5)CC4)n3)ccn2n1` [Example 81, 4-(4-((5-chloro-2-((2-(2-hydroxypropan-2-yl)-[1,2,4]triazolo[1,5-a]pyridin-7-yl)amino)pyrimidin-4-yl)amino)piperidin-1-yl)benzonitrile], in data set [1], the CLint scaled at 5 μM is 25.5 mL/min/kg and the half-life at 5 μM worked out at 97.3 min. In data set [2], the half-life at 5 μM turned out to be 419 min and the CLint scaled at 5 μM is 4.1 mL/min/kg. In addition, in data set [3], the “Clearance (CL) after iv dosing” value was determined as 162 mL/min/kg, the AUC(0-t) came to 1710 ng·h/mL, the half-life is 79.8 min and the Vd came out at 0.946 L/kg. For the same compound, the bioavailability in data set [3] was found to be 99.6%. In addition, at JAK1 (h), the IC50 was < 0.3 nM.

These data come from patent US10683297B2 (Sunshine Lake Pharma Co., Ltd., priority 2017, dated 2020).
